From PubChem BioAssay (NCI) come the findings set out here.

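Five compound concentrations were applied to cells in 96-well plates for 48 hours; endpoints were derived by simple linear interpolation of the resulting dose-response curve. Definition used: TGI = concentration required for complete inhibition of growth.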

Some test systems named below: 786-0 renal; BT-549 breast; CAKI-1 renal; COLO 205 colon; HCC-2998 colon; HCT-116 colon; HS 578T breast; IGROV1 ovarian; MDA-N; NCI-H522 lung; OVCAR-8 ovarian; RXF 393 renal; SF-295 CNS; SF-539 CNS; SK-OV-3 ovarian; SR leukemia; T-47D breast; HOP-92 NSCLC; NCI-H226 lung.
Test in all cases: NCI-60 cell line screen, 48 h

Consider `COC(=O)c1cc(/C=C/C(=O)Cc2ccccc2)cn1S(=O)(=O)c1ccccc1`, for which the TGI in the assay on 786-0 renal, in the assay with BT-549 breast, with CAKI-1 renal, in the assay with COLO 205 colon, with HCC-2998 colon and in the assay on HCT-116 colon was more than 100 µM in each case. In addition, the TGI in the assay on HS 578T breast, in the assay with IGROV1 ovarian, with MDA-N, with NCI-H522 lung, in the assay on OVCAR-8 ovarian and in the assay with RXF 393 renal was more than 100 µM in each case. Also, the TGI with SF-295 CNS, with SF-539 CNS, in the assay on SK-OV-3 ovarian, in the assay with SR leukemia and in the assay with T-47D breast was more than 100 µM in each case.

Turning to `Cn1c2ncccc2n2c(=O)cc(O)cc12`, the TGI in the assay on 786-0 renal, in the assay with BT-549 breast, with CAKI-1 renal, with COLO 205 colon, in the assay with HCC-2998 colon and with HCT-116 colon was more than 100 µM throughout. For the same compound, the TGI was 81.4 µM in the assay on HOP-92 NSCLC; 31.5 µM in the assay on IGROV1 ovarian; more than 100 µM with MDA-N; more than 100 µM in the assay on NCI-H226 lung; more than 100 µM in the assay on NCI-H522 lung; more than 100 µM in the assay with OVCAR-8 ovarian. In addition, the TGI is 75.5 µM in the assay with RXF 393 renal; more than 100 µM in the assay on SF-295 CNS; more than 100 µM with SF-539 CNS; more than 100 µM with SK-OV-3 ovarian; more than 100 µM in the assay with SR leukemia; 95.7 µM in the assay on T-47D breast.

Take `Cc1cc(NS(=O)(=O)c2ccc(NO)cc2)no1`: the TGI with 786-0 renal, with BT-549 breast, with CAKI-1 renal, with COLO 205 colon, in the assay with HCC-2998 colon and in the assay with HCT-116 colon was more than 100 µM each time. For the same compound, the TGI in the assay with HOP-92 NSCLC was more than 100 µM; in the assay with HS 578T breast, more than 100 µM; in the assay on IGROV1 ovarian, more than 100 µM; in the assay on MDA-N, 44.4 µM; with NCI-H226 lung it was more than 100 µM; in the assay on OVCAR-8 ovarian, more than 100 µM. The TGI in the assay with RXF 393 renal is more than 100 µM; in the assay on SF-539 CNS, more than 100 µM; with SK-OV-3 ovarian, more than 100 µM; in the assay with SR leukemia, 46.2 µM.

As to `CCCCCN1C(=O)C(Cc2ccccc2)N=C(c2ccc(O)cc2)c2cc(Cl)ccc21` (centres undefined), the TGI in the assay on 786-0 renal was determined as 27.3 µM; in the assay on BT-549 breast it was 33.4 µM; in the assay with CAKI-1 renal, 35.1 µM; in the assay with COLO 205 colon, 10.1 µM; in the assay with HCT-116 colon, 21.5 µM; with HOP-92 NSCLC, 25 µM. In addition, the TGI with HS 578T breast was 32.4 µM; in the assay on IGROV1 ovarian, 23.9 µM; with MDA-N it was more than 40.3 µM; with NCI-H226 lung, 26.3 µM; with NCI-H522 lung, 17.2 µM; with OVCAR-8 ovarian, 25.8 µM. The TGI in the assay on SF-295 CNS is 20.7 µM; in the assay on SF-539 CNS, 38.9 µM; in the assay on SK-OV-3 ovarian it was 41.1 µM; with SR leukemia it was 15.3 µM; in the assay with T-47D breast it was 12.4 µM.

Consider `Cc1cc(C)c(NS(=O)c2ccc(Cl)cc2)c(C)c1` (centres undefined), for which the TGI in the assay with 786-0 renal, with BT-549 breast, in the assay on COLO 205 colon, with HCC-2998 colon, with HCT-116 colon and with HOP-92 NSCLC was more than 100 µM throughout. Also, the TGI with MDA-N, in the assay with NCI-H226 lung, in the assay on OVCAR-8 ovarian, with RXF 393 renal, with SF-295 CNS and with SF-539 CNS was more than 100 µM in each case. In addition, the TGI in the assay on SR leukemia and in the assay on T-47D breast was more than 100 µM in each case.

As to `CO[P@@]1(=O)O[C@@H](c2ccccc2)[C@H](O)[C@@]1(O)c1ccccc1`, the TGI in the assay with 786-0 renal, in the assay on BT-549 breast, in the assay on CAKI-1 renal, with COLO 205 colon, with HCT-116 colon and with HOP-92 NSCLC was more than 100 µM throughout. Besides, the TGI with HS 578T breast, in the assay on IGROV1 ovarian, in the assay with MDA-N, in the assay with NCI-H226 lung, in the assay with NCI-H522 lung and in the assay on OVCAR-8 ovarian was more than 100 µM in each case. For the same compound, the TGI is more than 100 µM in the assay with RXF 393 renal; more than 100 µM in the assay on SF-295 CNS; more than 100 µM with SF-539 CNS; more than 100 µM in the assay on SK-OV-3 ovarian; 74.7 µM in the assay with SR leukemia; more than 100 µM with T-47D breast.

`O=c1[nH][nH]c(=O)n1Cc1ccccc1`: the TGI with 786-0 renal, in the assay on BT-549 breast, in the assay with CAKI-1 renal, in the assay with COLO 205 colon, in the assay with HCC-2998 colon and in the assay on HCT-116 colon was more than 100 µM throughout. Further, the TGI in the assay on HS 578T breast, in the assay with MDA-N, in the assay with NCI-H226 lung, in the assay on NCI-H522 lung, with OVCAR-8 ovarian and in the assay with RXF 393 renal was more than 100 µM each time. Moreover, the TGI with SF-539 CNS, with SK-OV-3 ovarian, with SR leukemia and with T-47D breast was more than 100 µM in each case.

`CC(=O)N1C(c2[nH]c3ccccc3c2Cc2ccccc2)CCN1c1ccccc1` (centres undefined): the TGI with 786-0 renal, in the assay on BT-549 breast, in the assay with CAKI-1 renal, in the assay on COLO 205 colon, in the assay on HCC-2998 colon and in the assay with HCT-116 colon was more than 10 µM each time. Besides, the TGI with HS 578T breast, in the assay on IGROV1 ovarian, in the assay with MDA-N, in the assay on NCI-H226 lung, with NCI-H522 lung and with OVCAR-8 ovarian was more than 10 µM each time. Moreover, the TGI in the assay on RXF 393 renal, with SF-295 CNS, with SF-539 CNS, in the assay on SK-OV-3 ovarian, in the assay on SR leukemia and with T-47D breast was more than 10 µM each time.
